According to US20070036810A1, “Cyclic amp response element activator proteins and uses related thereto” (priority 2003, published 2007):

Experiments:
Format in all cases: cell-based
human IL-8 promoter = assay: pGL2-IL-8p-Luc reporter inducibility in HEK 293 cells; settings: HEK 293 cells treated with 50 ng/ml for 16 hours
Experimental: A luciferase reporter controlled by a 1.5 kB IL-8 promoter containing fragment of human IL-8 promoter was tested for inducibility by known regulators of cytokine-mediated gene expression. pNF-κB-Luc (BD Biosciences) and pGL2-IL-8p-Luc reporters were co-transfected into HEK 293 cells with expression constructs encoding known activators of the NF-κB pathway, truncated MEKK (AA 360-672) (Stratagene) and a full length TRAF6 cDNA made according to conventional methods using a proprietary clone collection. Cells co-transfected with empty pCMV-Sport6 vector were either left untreated or treated with TNFα (50 ng/ml, for 16 hours). Luciferase activity was measured 48 hours post transfection. The pNF-κB-Luc reporter was used as a positive control.

[1] = tested on: secreted IL-8 protein from HeLa cells; assay: IL-8 Elisa assay in HeLa cells; settings: after transfection
Experimental: HeLa cells are transfected with DNA samples selected from the group of sequence verified and confirmed hits at 100 ng per well in 96 well plates (Costar) using the protocol described above. DNA samples designated as co-activators are co-transfected at 25 ng per well. Empty vector pCMV-Sport6 is used as a negative control. 72 hours post-transfection IL-8 content is measured in the cell growth media in prediluted aliquots corresponding to 1 to 5 μl of conditioned growth media using an IL-8 Elisa kit (Sigma) following the provided protocol. As a positive control, growth media is collected from the cells transfected with empty vector and treated with IL-1β and TNFα (R&D Systems) at 5 ng/ml and 50 ng/ml respectively for 16 hours prior to collection of the growth media for the IL-8 assay.

GAL4-CREB fusion protein = assay: GAL4-CREB activation assay in HLR cell line; settings: HLR cell line with integrated pFR-Luc reporter, normalized to pCMV-BD vector
Experimental: To determine if CREAP proteins can directly activate CREB1 protein, the expression constructs of CREAP1, CREAP2 and CREAP3 were transfected individually or with GAL4-CREB plasmid (Stratagene) into HLR cell line (Stratagene) carrying genomic DNA integrated copies of pFR-Luc reporter. Briefly, HLR cells were maintained per manufacturer's instructions. Selected plasmids and either empty vector (pCMV-BD) or GAL4-CREB plasmid were transfected at 75 ng/well using Fugene6 transfection reagent (Roche) as described above. As a positive control pFC-PKA an expression construct encoding catalytic subunit of protein kinase A (Stratagene) was also co-trasfected with GAL4-CREB. Fold of activation was compared to the reporter's activity measured in the cells transfected with empty vector.
The ability of full length CREAP1, CREAP2 and CREAP3 to induce the activity of GAL4-CREB fusion protein (Stratagene) was tested. The data presented are normalized to the value seen with pCMV-BD vector. […] Note the fold induction obtained with positive control is lower when compared to the data from Table 6 when all the plasmids including the reporter were transiently transfected.

[2] = tested on: GAL4 DNA binding sites (UAS-Luc, pFR-Luc reporter); assay: GAL4 DNA binding domain fusion transactivation assay (pFR-Luc) in HEK 293 cells; settings: normalized to pCMV-BD vector
Excerpt: To determine if CREAP proteins can act as a transcription activators, various regions of all 3 CREAP homologs (amino acids 300-650 of CREAP1, amino acids 296-694 of CREAP2 and amino acids 335-635 of CREAP3) were expressed as fusion proteins with the DNA binding domain of GAL4 and tested for the ability to activate expression of a reporter gene linked to GAL4 protein binding sequences (UAS-Luc (pFR-Luc reporter). Briefly, the indicated regions of CREAP1, CREAP2 and CREAP3 were amplified by PCR and subcloned in frame into pCMV-BD vector (Stratagene) encoding GAL4 DNA binding domain. Selected plasmids and empty vector (pCMV-SPORT6) were transfected into HEK 293 cells at 75 ng/well using Fugene6 transfection reagent (Roche) as described above. pFR-Luc reporter (Stratagene) encoding firefly luciferase gene driven by minimal promoter linked to 5 concatamerized GAL4 binding sites (UAS) was co-transfected at 100 ng/well. As a positive control, the reporter was also co-transfected with a plasmid encoding GAL4-CREB fusion protein (Stratagene) alone or in the presence of pFC-PKA an expression construct encoding catalytic subunit of protein kinase A (Stratagene) to activate the CREB kinase inducible activation domain. Fold induction was compared to the reporter's activity measured in the cells transfected with pCMV-BD an expression vector carrying GAL4 DNA binding domain only. […]

Substance: TNFα [reference compound]
- increase of IL-8 promoter-reporter activity (human IL-8 promoter): 4.7 times

Substance: relA: subunit of NF-κB transcription factor, expression construct [reference compound]
- accumulation of secreted IL-8 protein [1]: induced small increases

Substance: GAL4-CREB: plasmid encoding GAL4-CREB fusion protein (Stratagene) [reference compound]
- Fold Induction (GAL4-CREB fusion protein): 75.55
- Fold Induction [2]: 7.66
